Like-named read-outs stand apart in the source and are kept apart here.
What was measured:
[1] = target: KRAS WT (Homo sapiens (Human), UniProt P01116); assay: KRAS WT Biochemical Assay, BODIPY-GDP Exchange TR-FRET (Example 501; 3 nM KRAS WT, 3 nM SOS1, 60-minute incubation)
In short: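 SOS1-mediated exchange assay: 3 nM biotin-KRAS WT with terbium-streptavidin, started with 3 nM SOS1 and 300 nM BODIPY-GDP, HEPES pH 7.5 with MgCl2. TR-FRET (520/490 nm) read after 60 min; normalized to DMSO and full-inhibition control, IC50 from 4-parameter Hill fit.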

[2] = target: KRAS G12D (Homo sapiens (Human), UniProt P01116, G12D); assay: KRAS G12D LoEnz Biochemical Assay, BODIPY-GDP Exchange TR-FRET (SOS1-mediated nucleotide exchange); conditions: read-out: KRas (G12D) GDP HTRF IC50
Chain of KRAS G12D (P01116-2 other isoform, or with tags, fused parts or gaps G12D): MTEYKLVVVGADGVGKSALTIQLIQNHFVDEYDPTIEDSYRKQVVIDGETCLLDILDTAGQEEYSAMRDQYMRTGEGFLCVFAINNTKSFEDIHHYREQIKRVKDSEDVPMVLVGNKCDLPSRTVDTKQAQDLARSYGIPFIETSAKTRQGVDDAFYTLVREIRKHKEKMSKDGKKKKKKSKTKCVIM

Chain of KRAS WT (P01116-2 other isoform, or with tags, fused parts or gaps): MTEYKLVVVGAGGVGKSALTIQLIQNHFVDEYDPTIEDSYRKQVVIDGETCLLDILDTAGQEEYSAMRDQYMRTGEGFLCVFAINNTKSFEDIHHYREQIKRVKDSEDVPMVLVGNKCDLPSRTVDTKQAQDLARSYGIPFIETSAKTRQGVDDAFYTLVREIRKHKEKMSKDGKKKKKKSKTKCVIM

Row | Structure (SMILES) | IC50 ([1]; read-out: KRas HTRF IC50) | IC50 [2] | IC50 ([1]; KRas HTRF IC50 [uM])
1 | Cc1nc(N)c(F)c(-c2nc3c4c(nc(OC[C@@]56CCCN5C[C@H](F)C6)nc4c2F)N2C[C@H]4CC[C@H](N4)[C@H]2[C@H](C(F)(F)F)O3)c1C(F)(F)F [Compound 256, 3-Fluoro-4-((5R,5aS,6S,9R)-1-fluoro-12-(((2R,7aS)-2-fluorotetrahydro-1H-pyrrolizin-7a(5H)-yl)methoxy)-5-(trifluoromethyl)-5a,6,7,8,9,10-hexahydro-5H-4-oxa-3,10a,11,13,14-pentaaza-6,9-methanonaphtho[1,8-ab]heptalen-2-yl)-6-methyl-5-(trifluoromethyl)pyridin-2-amine] | 0.017 µM | 0.82 nM | 
2 | Cc1nc(N)c(F)c(-c2nc3c4c(nc(OC[C@@]56CCCN5CC5(CC5(F)F)C6)nc4c2F)N2C[C@H]4CC[C@H](N4)[C@H]2[C@H](C(F)(F)F)O3)c1C(F)(F)F (stereo partly drawn) [Compound 257, 4-((5R,5aS,6S,9R)-12-(((7a'S)-2,2-Difluorodihydro-1′H,3′H-spiro[cyclopropane-1,2′-pyrrolizin]-7a′(5′H)-yl)methoxy)-1-fluoro-5-(trifluoromethyl)-5a,6,7,8,9,10-hexahydro-5H-4-oxa-3,10a,11,13,14-pentaaza[6,9]methanonaphtho[1,8-ab]heptalen-2-yl)-3-fluoro-6-methyl-5-(trifluoromethyl)pyridin-2-amine] | 0.00841 µM | 0.89 nM | 
3 | Cc1c(F)c(N)cc(-c2nc3c4c(nc(OCC5(CN6CC6(C)C)CC5)nc4c2F)N2C[C@H]4CC[C@H](N4)[C@H]2[C@H](C)O3)c1C(F)(F)F (stereo partly drawn) [Compound 259, 5-((5S,5aS,6S,9R)-12-((1-((2,2-Dimethylaziridin-1-yl)methyl)cyclopropyl)methoxy)-1-fluoro-5-methyl-5a,6,7,8,9,10-hexahydro-5H-4-oxa-3,10a,11,13,14-pentaaza-6,9-methanonaphtho[1,8-ab]heptalen-2-yl)-2-fluoro-3-methyl-4-(trifluoromethyl)aniline] |  | 0.16 nM | 0.00971 µM
4 | C[C@@H]1Oc2nc(-c3cc(N)nc(C(F)F)c3C(F)(F)F)c(F)c3nc(OC[C@@]45CCCN4C[C@H](F)C5)nc(c23)N2C[C@H]3CC[C@H](N3)[C@@H]12 [Compound 260, 6-(Difluoromethyl)-4-((5S,5aS,6S,9R)-1-fluoro-12-(((2R,7aS)-2-fluorotetrahydro-1H-pyrrolizin-7a(5H)-yl)methoxy)-5-methyl-5a,6,7,8,9,10-hexahydro-5H-4-oxa-3,10a,11,13,14-pentaaza-6,9-methanonaphtho[1,8-ab]heptalen-2-yl)-5-(trifluoromethyl)pyridin-2-amine] | 0.0262 µM | 0.28 nM | 
5 | Cc1nc(N)cc(-c2nc3c4c(nc(OCC56C[C@@H](F)CN5C[C@H](F)C6)nc4c2F)N2C[C@H]4CC[C@H](N4)[C@H]2[C@H](C(F)(F)F)O3)c1C(F)(F)F [Compound 261, 4-((5R,5aS,6S,9R)-12-(((2R,6R)-2,6-Difluorotetrahydro-1H-pyrrolizin-7a(5H)-yl)methoxy)-1-fluoro-5-(trifluoromethyl)-5a,6,7,8,9,10-hexahydro-5H-4-oxa-3,10a,11,13,14-pentaaza-6,9-methanonaphtho[1,8-ab]heptalen-2-yl)-6-methyl-5-(trifluoromethyl)pyridin-2-amine] | 0.0971 µM | 2.76 nM | 
6 | Cc1nc(N)cc(-c2nc3c4c(nc(OCC5(CN6CC7CC(C6)O7)CC5)nc4c2F)N2C[C@H]4CC[C@H](N4)[C@H]2[C@H](C)O3)c1C(F)(F)F [Compound 265, 4-((5S,5aS,6S,9R)-12-((1-((6-oxa-3-azabicyclo[3.1.1]heptan-3-yl)methyl)cyclopropyl)methoxy)-1-fluoro-5-methyl-5a,6,7,8,9,10-hexahydro-5H-4-oxa-3,10a,11,13,14-pentaaza-6,9-methanonaphtho[1,8-ab]heptalene-2-yl)-6-methyl-5-(trifluoromethyl)pyridin-2-amine] | 0.0141 µM | 0.28 nM | 
7 | Cc1nc(N)cc(-c2nc3c4c(nc(OCC5(CN6CCOC(C(F)(F)F)C6)CC5)nc4c2F)N2C[C@H]4CC[C@H](N4)[C@H]2[C@H](C)O3)c1C(F)(F)F (stereo partly drawn) [Compound 267, 4-((5S,5aS,6S,9R)-1-fluoro-5-methyl-12-((1-((2-(trifluoromethyl)morpholino)methyl)cyclopropyl)methoxy)-5a,6,7,8,9,10-hexahydro-5H-4-oxa-3,10a,11,13,14-pentaaza-6,9-methanonaphtho[1,8-ab]heptalene-2-yl)-6-methyl-5-(trifluoromethyl)pyridin-2-amine] | 0.609 µM | 2.98 nM | 
8 | Cc1nc(N)cc(-c2nc3c4c(nc(OCC5(CN6CC[C@H]7OCC[C@H]76)CC5)nc4c2F)N2C[C@H]4CC[C@H](N4)[C@H]2[C@H](C)O3)c1C(F)(F)F [Compound 268, 4-((5S,5aS,6S,9R)-1-fluoro-12-((1-(((3aR,6aR)-hexahydro-4H-furo[3,2-b]pyrrol-4-yl)methyl)cyclopropyl)methoxy)-5-methyl-5a,6,7,8,9,10-hexahydro-5H-4-oxa-3,10a,11,13,14-pentaaza-6,9-methanonaphtho[1,8-ab]heptalene-2-yl)-6-methyl-5-(trifluoromethyl)pyridin-2-amine] | 0.0119 µM | 0.29 nM | 
9 | Cc1nc(N)cc(-c2nc3c4c(nc(OCC5(CN6C[C@H](F)C[C@H](F)C6)CC5)nc4c2F)N2C[C@H]4CC[C@H](N4)[C@H]2[C@H](C)O3)c1C(F)(F)F [Compound 269, 4-((5S,5aS,6S,9R)-12-((1-(((3S,5R)-3,5-difluoropiperidin-1-yl)methyl)cyclopropyl)methoxy)-1-fluoro-5-methyl-5a,6,7,8,9,10-hexahydro-5H-4-oxa-3,10a,11,13,14-pentaaza-6,9-methanonaphtho[1,8-ab]heptalene-2-yl)-6-methyl-5-(trifluoromethyl)pyridin-2-amine] | 0.105 µM | 0.42 nM | 
10 | COCC1(F)CCN(CC2(COc3nc4c5c(nc(-c6cc(N)nc(C)c6C(F)(F)F)c(F)c5n3)O[C@@H](C)[C@@H]3[C@@H]5CC[C@H](CN43)N5)CC2)C1 (stereo partly drawn) [Compound 270, 4-((5S,5aS,6S,9R)-1-fluoro-12-((1-((3-fluoro-3-(methoxymethyl)pyrrolidin-1-yl)methyl)cyclopropyl)methoxy)-5-methyl-5a,6,7,8,9,10-hexahydro-5H-4-oxa-3,10a,11,13,14-pentaaza-6,9-methanonaphtho[1,8-ab]heptalen-2-yl)-6-methyl-5-(trifluoromethyl)pyridin-2-amine] | 0.0107 µM | 0.26 nM | 
11 | COC1(C(F)F)CN(CC2(COc3nc4c5c(nc(-c6cc(N)nc(C)c6C(F)(F)F)c(F)c5n3)O[C@@H](C)[C@@H]3[C@@H]5CC[C@H](CN43)N5)CC2)C1 [Compound 271, 4-((5S,5aS,6S,9R)-12-((1-((3-(difluoromethyl)-3-methoxyazetidin-1-yl)methyl)cyclopropyl)methoxy)-1-fluoro-5-methyl-5a,6,7,8,9,10-hexahydro-5H-4-oxa-3,10a,11,13,14-pentaaza-6,9-methanonaphtho[1,8-ab]heptalene-2-yl)-6-methyl-5-(trifluoromethyl)pyridin-2-amine] | 0.0564 µM | 0.51 nM | 
12 | COC1(CF)CN(CC2(COc3nc4c5c(nc(-c6cc(N)nc(C)c6C(F)(F)F)c(F)c5n3)O[C@@H](C)[C@@H]3[C@@H]5CC[C@H](CN43)N5)CC2)C1 [Compound 272, 4-((5S,5aS,6S,9R)-1-fluoro-12-((1-((3-(fluoromethyl)-3-methoxyazetidin-1-yl)methyl)cyclopropyl)methoxy)-5-methyl-5a,6,7,8,9,10-hexahydro-5H-4-oxa-3,10a,11,13,14-pentaaza-6,9-methanonaphtho[1,8-ab]heptalene-2-yl)-6-methyl-5-(trifluoromethyl)pyridin-2-amine] | 0.0244 µM | 0.38 nM | 
13 | COC1(C)CN(CC2(COc3nc4c5c(nc(-c6cc(N)nc(C)c6C(F)(F)F)c(F)c5n3)O[C@@H](C)[C@@H]3[C@@H]5CC[C@H](CN43)N5)CC2)C1 [Compound 273, 4-((5S,5aS,6S,9R)-1-fluoro-12-((1-((3-methoxy-3-methylazetidin-1-yl)methyl)cyclopropyl)methoxy)-5-methyl-5a,6,7,8,9,10-hexahydro-5H-4-oxa-3,10a,11,13,14-pentaaza-6,9-methanonaphtho[1,8-ab]heptalene-2-yl)-6-methyl-5-(trifluoromethyl)pyridin-2-amine] | 0.0171 µM | 0.29 nM | 
14 | Cc1nc(N)cc(-c2nc3c4c(nc(OCC5(CN6CC(C(F)F)C6)CC5)nc4c2F)N2C[C@H]4CC[C@H](N4)[C@H]2[C@H](C)O3)c1C(F)(F)F [Compound 274, 4-((5S,5aS,6S,9R)-12-((1-((3-(difluoromethyl)108eptalene-1-yl)methyl)cyclopropyl)methoxy)-1-fluoro-5-methyl-5a,6,7,8,9,10-hexahydro-5H-4-oxa-3,10a,11,13,14-pentaaza-6,9-methanonaphtho[1,8-ab]heptalene-2-yl)-6-methyl-5-(trifluoromethyl)pyridin-2-amine] | 0.0257 µM | 0.34 nM | 
15 | CO[C@@H]1CCN(CC2(COc3nc4c5c(nc(-c6cc(N)nc(C)c6C(F)(F)F)c(F)c5n3)O[C@@H](C)[C@@H]3[C@@H]5CC[C@H](CN43)N5)CC2)C[C@@H]1F [Compound 275, 4-((5S,5aS,6S,9R)-1-fluoro-12-((1-(((3S,4R)-3-fluoro-4-methoxypiperidin-1-yl)methyl)cyclopropyl)methoxy)-5-methyl-5a,6,7,8,9,10-hexahydro-5H-4-oxa-3,10a,11,13,14-pentaaza-6,9-methanonaphtho[1,8-ab]heptalene-2-yl)-6-methyl-5-(trifluoromethyl)pyridin-2-amine] | 0.0233 µM | 0.48 nM | 
